# Assay results reported in patent publication US9617602B2, “Methods and compositions for determining resistance to androgen receptor therapy” (Aragon Pharmaceuticals, Inc., priority 2012, dated 2017).
# Numbering of substitutions follows the chain as printed.
# What was measured:
# [1] = biological target: T1, wild-type AR (Homo sapiens, UniProt P10275, DEL79-80/DUP473-473)
# T1 sequence (P10275 with tags, fused parts or gaps DEL79-80/DUP473-473): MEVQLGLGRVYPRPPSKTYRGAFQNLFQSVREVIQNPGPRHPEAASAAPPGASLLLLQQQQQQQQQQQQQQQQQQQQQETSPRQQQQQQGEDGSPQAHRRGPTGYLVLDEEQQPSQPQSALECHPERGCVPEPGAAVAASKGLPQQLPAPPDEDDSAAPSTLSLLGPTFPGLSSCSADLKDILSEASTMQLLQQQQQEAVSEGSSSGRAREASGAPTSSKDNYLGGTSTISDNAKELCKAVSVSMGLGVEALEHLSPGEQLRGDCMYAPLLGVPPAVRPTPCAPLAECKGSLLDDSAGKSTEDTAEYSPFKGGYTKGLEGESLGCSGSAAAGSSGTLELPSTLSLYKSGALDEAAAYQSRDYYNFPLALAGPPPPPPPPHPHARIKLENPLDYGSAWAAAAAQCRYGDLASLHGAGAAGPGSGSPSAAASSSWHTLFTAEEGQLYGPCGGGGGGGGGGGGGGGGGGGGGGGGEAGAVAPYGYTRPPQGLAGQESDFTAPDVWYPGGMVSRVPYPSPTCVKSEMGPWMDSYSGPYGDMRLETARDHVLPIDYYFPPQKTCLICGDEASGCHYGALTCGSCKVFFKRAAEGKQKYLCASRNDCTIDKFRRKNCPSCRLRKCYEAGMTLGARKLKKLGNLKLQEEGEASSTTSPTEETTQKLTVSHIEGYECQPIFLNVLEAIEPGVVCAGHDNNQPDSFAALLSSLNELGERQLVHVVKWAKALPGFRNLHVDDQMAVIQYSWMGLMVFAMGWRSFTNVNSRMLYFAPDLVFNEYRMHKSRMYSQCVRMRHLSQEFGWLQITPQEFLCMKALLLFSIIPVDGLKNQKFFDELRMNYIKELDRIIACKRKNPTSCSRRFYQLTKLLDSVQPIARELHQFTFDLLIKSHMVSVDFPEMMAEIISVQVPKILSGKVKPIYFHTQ
# Experimental: (§1) Transcriptional reporter assays were performed by seeding 100 μL of HEPG2 cells at a density of 250,000 cells/mL into 96-well cell culture plates in MEM supplemented with 10% charcoal stripped serum and allowed to attach overnight at 37° C.
# (§2) Cells were transiently transfected using Lipofectin® (Life Technologies) according to the manufacturer's protocol.
# (§3) Following 48 hour incubation the medium was removed and the cells were lysed in 40 μL of lysis buffer (25 mM Tris Phosphate, 2 mM CDTA, 10% Glycerol, 0.5% Triton X-100, 2 mM DTT).
# (§4) The AR transcriptional reporter assays were performed essentially as described above with minor modifications. Triplicate transfections were performed using 50 ng pCDNA3-AR or pCDNA3-AR mutant, 65 ng 4×ARE-Luciferase, 20 ng pRL (Promega), and 25 ng pCMX.
# [2] = biological target: T2, F876L AR (Homo sapiens, UniProt P10275, DEL79-80/DUP473-473/F877L)
# T2 sequence (P10275 with tags, fused parts or gaps DEL79-80/DUP473-473/F877L): T1 sequence (P10275 with tags, fused parts or gaps DEL79-80/DUP473-473) with F876L
# Experimental: as §1, §2, §3, §4
# [3] = biological target: wild-type VP16-AR (Homo sapiens, UniProt P10275)
# Experimental: (§5) AR point mutations were generated in VP16-AR using the QuickChange II Site-Directed Mutagenesis Kit (Agilent Technologies, Santa Clara, Calif.) according to the manufacturer's protocol.
# (§6) Transcription assays were performed essentially as described above. […] Luciferase activity was measured as described above.
# [4] = biological target: F876L VP16-AR (Homo sapiens, UniProt P10275, DEL79-80/DUP473-473/F877L)
# Experimental: as §5, §6
smiles,measurement,setting,value
"CC(C)(O)C(=O)Nc1ccc([N+](=O)[O-])c(C(F)(F)F)c1 [Hydroxyflutamide, hydroxyflutamide]",4X ARE Reporter Assay WT Emax,[1],28.9 ± 5.0 percent maximal R1881 response
same,4X ARE Reporter Assay F876L Emax,[2],0.8 ± 0.2 percent maximal R1881 response
same,AR-VP16 WT Emax,[3],42.28 ± 4.44 percent maximal R1881 response
same,AR-VP16 F876L Emax,[4],5.36 ± 5.35 percent maximal R1881 response
